Data on 2 substances can be found in US5994299A, “Cyclosporin compounds, their preparation and the pharmaceutical compositions which contain them” (Rhone-Poulenc Rorer, S.A., priority 1996, dated 1999).

For assay [1] the following is noted: EP 484,281 and Eur. J. Immunol., 17, 1359 (1987); cited from earlier work.

Like-named read-outs stand apart in the source and are kept apart here.

Regarding “[(R)-2-(N,N-Dimethylamino)ethylthio-Sar]^3 -[4'-hydroxy-MeLeu]^4 -cyclosporin A [Example 1]”, the effect of combination entry with retroviruses (combined with AZT, ddl, Saquinavir, Nevirapin, Ritonavir and/or ribavirin) was “synergistic effect”; in the assay on retroviruses (combined with Indinavir), “additive effect”.
Regarding [4'-hydroxy-MeLeu]^4 -cyclosporin A, in assay [1], the immunosuppressing nature entry was “not immunosuppressing”.
